Like-named read-outs stand apart in the source and are kept apart here. Where a SMILES comes first, the peptide text is derived from it.
Columns and labels:
Sglt1/2 = assay: Uptake of [14C]αMG by mice kidney slices; format: in vitro ADME; settings: for effect on [14C]αMG uptake by kidney slices, inhibitor alone: 30 mM galactose, D-glucose free
Procedure: (§1) Uptake studies using mouse kidney slices were carried out as described in a previous report after slight modifications. The slices of whole kidneys were prepared with a microslicer (Zero 1; Dosaka EM, Kyoto, Japan), and the renal pelvis portion was removed. Prepared slices (0.3 mm thick) of whole kidneys from male mice were immediately put in ice-cold oxygenated transport buffer (130 mM NaCl, 4.8 mM KCl, 1.2 mM CaCl2, 1.2 mM MgSO4, 1.2 mM KH2PO4 and 25 mM HEPES, adjusted to pH 7.4). When uptake was conducted in Na^+-free condition, NaCl was replaced with N-methyl-D-glucamine (NMG) in transport buffer. Three or four slices from one mouse, weighing each slice 2 to 10 mg, were randomly selected and then pre-incubated in a 24-well plate with 1.0 ml of oxygenated transport buffer in each well at 37 °C for 5 min. After pre-incubation, the kidney slices were put into transport buffer containing radiolabeled substrates with or without inhibitors to initiate the uptake reaction. The uptake reactions were carried out at 37 °C for an appropriate time, and then each slice was rapidly removed from the transport buffer, washed twice in ice-cold transport buffer, blotted on filter paper and weighed. For measurement of radiolabeled compounds, the slices were dissolved in 0.15 ml of 1 N NaOH. Then, the lysate was neutralized with HCl. The apparent uptake of [^14C]inulin was evaluated in independent experiments (n = 3) to estimate the volume of water adhering to the kidney slices after an incubation. […] Viability of the isolated kidney slices was assessed as described in the supplemental file.
(§2) The half-inhibitory concentration (IC 50) values of inhibitors were obtained by examining their inhibitory effects on uptake of test substrates according to the following equation (2):2 %ofcontrol=IC50/(IC50+I) where % of control represents inhibition rate in the presence of inhibitors and I is inhibitor concentration.

Octn1 = target: T1, Octn1 (Mus musculus, UniProt Q9Z306); assay: Uptake of [3H]ergothioneine by mice kidney slices; format: in vitro ADME; settings: for inhibition of [3H]ergothioneine uptake by kidney slices at low inhibitor concentration: 0.5 mM carnitine, 0.1 mM cimetidine; for effect on Na+-dependent uptake of [3H]ergothioneine into mice kidney slices: Fig. 3A
T1 construct: between native Octn1 in kidney tissues and transporter-gene transfected cells; from tissue; host or cells: mouse kidney slices (0.3 mm; male ICR mice, or C57BL/6J-backcrossed wild-type and Octn1-/- mice)
T1 sequence (Q9Z306 1-553): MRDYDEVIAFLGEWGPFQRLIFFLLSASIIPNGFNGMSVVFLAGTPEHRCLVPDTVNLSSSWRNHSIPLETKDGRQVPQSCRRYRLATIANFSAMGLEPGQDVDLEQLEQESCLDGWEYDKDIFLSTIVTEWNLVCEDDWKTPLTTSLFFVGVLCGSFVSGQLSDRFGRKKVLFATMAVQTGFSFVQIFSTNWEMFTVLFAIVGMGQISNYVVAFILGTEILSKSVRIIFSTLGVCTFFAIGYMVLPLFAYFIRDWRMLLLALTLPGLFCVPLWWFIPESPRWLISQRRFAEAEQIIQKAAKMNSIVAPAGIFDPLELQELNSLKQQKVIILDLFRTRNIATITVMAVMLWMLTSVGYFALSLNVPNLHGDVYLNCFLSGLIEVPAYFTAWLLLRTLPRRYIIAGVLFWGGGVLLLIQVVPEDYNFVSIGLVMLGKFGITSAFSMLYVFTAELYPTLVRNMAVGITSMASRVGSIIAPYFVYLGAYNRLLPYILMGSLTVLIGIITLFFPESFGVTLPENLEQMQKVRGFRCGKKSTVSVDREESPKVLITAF
Procedure: as §1
Radioactivity was quantified with a liquid scintillation counter (Aloka, Tokyo, Japan). To calculate kinetic parameters for carrier-mediated uptake of test substrates, uptake rate was fitted to eq. (1) by means of a nonlinear least-squares regression analysis using MULTI program[36]:1 v=Vmax×s/(Km+s) where v, s, K m, and V max are the uptake rate of substrate, the substrate concentration in the medium, the apparent Michaelis-Menten constant, and the maximal uptake rate, respectively.
as §2

Mate1 = settings: read-out: IC 50 for Mate1; cited from earlier work
Oct2 = settings: read-out: IC 50 for Oct2; cited from earlier work
Mouse Octn2 [1] = target: T2, Mouse Octn2 (Mus musculus, UniProt Q9Z0E8); assay: Uptake of [3H]carnitine by Octn2-expressing HEK293 cells; format: cell-based; settings: [3H]carnitine 1.0 μM, 15 sec, mock subtracted, read-out: IC 50 for carnitine uptake, Expression Model
T2 construct: expressed in transfected cells; host or cells: HEK293
T2 sequence (Q9Z0E8 1-557): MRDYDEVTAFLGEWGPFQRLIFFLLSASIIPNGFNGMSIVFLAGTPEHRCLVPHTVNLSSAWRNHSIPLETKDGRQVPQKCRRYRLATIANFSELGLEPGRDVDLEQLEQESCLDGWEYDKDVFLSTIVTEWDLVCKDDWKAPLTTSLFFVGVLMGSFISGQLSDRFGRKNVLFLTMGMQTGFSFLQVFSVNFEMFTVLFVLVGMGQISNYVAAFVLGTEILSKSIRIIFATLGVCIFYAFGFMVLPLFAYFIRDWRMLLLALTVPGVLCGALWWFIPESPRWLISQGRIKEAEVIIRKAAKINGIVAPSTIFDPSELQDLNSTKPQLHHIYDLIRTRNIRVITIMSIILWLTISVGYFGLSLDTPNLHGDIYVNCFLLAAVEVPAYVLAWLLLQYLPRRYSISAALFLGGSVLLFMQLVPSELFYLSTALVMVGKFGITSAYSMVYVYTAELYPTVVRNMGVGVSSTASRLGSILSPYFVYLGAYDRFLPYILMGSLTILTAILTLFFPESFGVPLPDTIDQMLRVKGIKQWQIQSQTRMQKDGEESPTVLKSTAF

Octn2 = target: T3, Octn2 (Mus musculus, UniProt Q9Z0E8); assay: Uptake of [3H]carnitine by mice kidney slices; format: in vitro ADME
T3 construct: from tissue; host or cells: mouse kidney slices (male ICR mice)
T3 sequence (Q9Z0E8 1-557): T2 sequence (Q9Z0E8 1-557)
Procedure: as §1, with “The uptake reactions were carried out at 37 °C for an appropriate time, and then each slice was rapidly removed from the transport buffer, washed twice in ice-cold transport buffer, blotted on filter paper and weighed. For measurement of radiolabeled compounds, the slices were dissolved in 0.15 ml of 1 N NaOH. Then, the lysate was neutralized with HCl.” left out, “file. […]” for “file.”

Pept1/2 = assay: Uptake of [3H]Gly-Sar by mice kidney slices; format: in vitro ADME; settings: for effect on uptake of [3H]Gly-Sar by mice kidney slices: 5 mM Gly-Leu, 100 μM cephadroxil, 37 °C
Procedure: Uptake studies using mouse kidney slices were carried out as described in a previous report after slight modifications. The slices of whole kidneys were prepared with a microslicer (Zero 1; Dosaka EM, Kyoto, Japan), and the renal pelvis portion was removed. Prepared slices (0.3 mm thick) of whole kidneys from male mice were immediately put in ice-cold oxygenated transport buffer (130 mM NaCl, 4.8 mM KCl, 1.2 mM CaCl2, 1.2 mM MgSO4, 1.2 mM KH2PO4 and 25 mM HEPES, adjusted to pH 7.4). When uptake was conducted in Na^+-free condition, NaCl was replaced with N-methyl-D-glucamine (NMG) in transport buffer. Three or four slices from one mouse, weighing each slice 2 to 10 mg, were randomly selected and then pre-incubated in a 24-well plate with 1.0 ml of oxygenated transport buffer in each well at 37 °C for 5 min. After pre-incubation, the kidney slices were put into transport buffer containing radiolabeled substrates with or without inhibitors to initiate the uptake reaction. The uptake reactions were carried out at 37 °C for an appropriate time, and then each slice was rapidly removed from the transport buffer, washed twice in ice-cold transport buffer, blotted on filter paper and weighed. For measurement of radiolabeled compounds, the slices were dissolved in 0.15 ml of 1 N NaOH. Then, the lysate was neutralized with HCl. The apparent uptake of [^14C]inulin was evaluated in independent experiments (n = 3) to estimate the volume of water adhering to the kidney slices after an incubation. In this study, observed extracellular adhered water space was 0.128 ± 0.004 μL/5 min/mg kidney. Viability of the isolated kidney slices was assessed as described in the supplemental file.
Radioactivity was quantified with a liquid scintillation counter (Aloka, Tokyo, Japan). To calculate kinetic parameters for carrier-mediated uptake of test substrates, uptake rate was fitted to eq. […]

PEPT1 = test system: PEPT1; parameters: method as in PMID 11004485; settings: cited from earlier work
PEPT2 = test system: PEPT2; parameters: method as in PMID 15862787; settings: cited from earlier work
Sglt2 = test system: Sglt2; parameters: method as in PMID 22139434; settings: cited from earlier work
Mouse Octn1 = Mouse Octn1 (Mus musculus, UniProt Q9Z306); settings: Octn1-expressing HEK293 cells, previous report, cited from earlier work
Mouse Octn2 [2] = target: T2, Mouse Octn2; parameters: method as in PMID 11010964; settings: cited from earlier work
[3] = [3H]ergothioneine 1.0 μM, 3 min

SMILES: O=C[C@H](O)[C@@H](O)[C@@H](O)[C@H](O)CO [galactose, D-galactose]
- effect on [14C]αMG uptake by kidney slices, inhibitor alone (Sglt1/2; 50 nM dapagliflozin, 5 min): decreased

SMILES: CN/C(=N/CCSCc1nc[nH]c1C)NC#N [Cimetidine]
- inhibition of [3H]ergothioneine uptake by kidney slices at low inhibitor concentration (Octn1): no significant inhibition
- effect on Na+-dependent uptake of [3H]ergothioneine into mice kidney slices (Octn1; [3]): significantly reduced
- IC50 (Mate1): 16.3 µM
- IC50 (Oct2): 8 µM

SMILES: COc1ccc(CCN(C)CCCC(C#N)(c2ccc(OC)c(OC)c2)C(C)C)cc1OC (stereo not shown) [Verapamil]
- IC50 (Mouse Octn2 [1]): 94.1 ± 8.9 µM
- IC50 (Octn2): 363 ± 142 µM

SMILES: CN(CC(=O)O)C(=O)CN [Gly-Sar, glycylsarcosine] (HELM PEPTIDE1{G.[Sar]}$$$$V2.0)
- K m of Gly-Sar uptake, Mice Kidney Slice (Pept1/2; pH 7.4, 37 °C, 5 min, 10-300 μM): 161 ± 17 µM
- K m of Gly-Sar, Expression Model (PEPT1) (PEPT1): 600 (PEPT1)[37] µM
- K m of Gly-Sar, Expression Model (PEPT2) (PEPT2): 79.5 (PEPT2)[31] µM
- K m of Gly-Sar, Expression Model (PEPT2) (PEPT2; listed as [^3H]Gly-Sar): 79.5 µM

SMILES: CCOc1ccc(Cc2cc([C@@H]3O[C@H](CO)[C@@H](O)[C@H](O)[C@H]3O)ccc2Cl)cc1 [dapagliflozin]
- effect on [14C]αMG uptake with 30 mM galactose or 1 mM D-glucose simultaneously added (Sglt1/2; 50 nM dapagliflozin, 5 min): decreased
- effect on αMG uptake in the presence of 10 mM D-glucose (Sglt1/2; 10 mM D-glucose, Sglt1 and Sglt2 saturated): no further decrease
- effect on [14C]αMG uptake by kidney slices, inhibitor alone (Sglt1/2; 50 nM dapagliflozin, 5 min): not affected

SMILES: CC1=C(C(=O)O)N2C(=O)[C@@H](NC(=O)[C@H](N)c3ccc(O)cc3)[C@H]2SC1 [cephadroxil]
- effect on uptake of [3H]Gly-Sar by mice kidney slices (Pept1/2): decreased

SMILES: CC(C)CC(NC(=O)CN)C(=O)O (stereo not shown) [Gly-Leu, glycyl-leucine]
- effect on uptake of [3H]Gly-Sar by mice kidney slices (Pept1/2): decreased

SMILES: C[N+](C)(C)[C@@H](Cc1c[nH]c(=S)[nH]1)C(=O)[O-] [Ergothioneine, ergothioneine]
- K m in kidney slices relative to K m in Octn1-expressing HEK293 cells (Octn1; 81.5 μM versus 4.68 μM): 17 times
- uptake in the presence of Na+ versus absence of Na+ (Octn1; [3H]ergothioneine 1.0 μM, pH 7.4, 37 °C, 1-20 min): significantly higher
- K m of ergothioneine uptake, Mice Kidney Slice (Octn1; pH 7.4, 37 °C, 3 min, 1-250 μM): 69.8 ± 27.6 µM
- uptake of [3H]ergothioneine in 1 hr after removal of kidney compared with 25 min (Octn1; slice viability, pre-incubation pH 7.4, 37 °C): 69.0 ± 6.6%
- K m of ergothioneine, Expression Model (Mouse Octn1): 4.68[22] µM
- K m of ergothioneine, Expression Model (Mouse Octn1; listed as ergothioneine): 4.68 µM

SMILES: C[N+](C)(C)CC(O)CC(=O)[O-] (stereo not shown) [carnitine]
- inhibition of [3H]ergothioneine uptake by kidney slices at low inhibitor concentration (Octn1): no significant inhibition
- effect on Na+-dependent uptake of [3H]ergothioneine into mice kidney slices (Octn1; [3]): significantly reduced
- K m value of carnitine for Octn2 (Mouse Octn2 [2]): 22.1 µM
- uptake in the presence of Na+ versus absence of Na+ (Octn2; [3H]carnitine 1.3 nM, pH 7.4, 37 °C, 1-20 min): significantly higher

Source: PMC5634478, “Usefulness of kidney slices for functional analysis of apical reabsorptive transporters” (Scientific Reports, 2017)
